Assay results from ChEMBL document CHEMBL3351506, “Synthesis and antiproliferative activity of conjugates of adenosine with muramyl dipeptide and nor-muramyl dipeptide derivatives” (Bioorg Med Chem Lett, 2014).

What was measured:
[1] = system: L1210; assay: Ratio of IC50 for mouse L1210 cells by MTT assay to EC50 for mouse L1210 cells by [3H]thymidine incorporation assay; format: functional
[2] = Cytotoxicity against human PBMC assessed as inhibition of cell viability at 0.25 mg/ml after 72 hrs by MTT assay; format: cell-based; settings: PBMC (peripheral blood mononuclear cells), read-out: INH
[3] = system: PBMC; assay: Cytotoxicity against human PBMC assessed as inhibition of cell viability after 72 hrs by MTT assay; format: cell-based
[4] = system: L1210; assay: Antitumor activity against mouse L1210 cells assessed as inhibition of [3H]thymidine incorporation after 72 hrs; format: functional, cell-based
[5] = system: L1210; assay: Antitumor activity against mouse L1210 cells assessed as inhibition of [3H]thymidine incorporation at 0.25 mg/ml after 72 hrs relative to control; format: functional
[6] = system: L1210; assay: Cytotoxicity against mouse L1210 cells assessed as inhibition of cell viability after 72 hrs by MTT assay; format: functional, cell-based; settings: L1210, 72 h
[7] = system: L1210; assay: Cytotoxicity against mouse L1210 cells assessed as inhibition of cell viability after 72 hrs by MTT assay relative to control; format: functional; parameters: concentration or dose not given beside the values; settings: values are per cent of control
[8] = system: L1210; assay: Antitumor activity against mouse L1210 cells assessed as inhibition of [3H]thymidine incorporation at 0.5 mg/ml after 72 hrs relative to control; format: functional; settings: values are per cent of control
[9] = Cytotoxicity against human PBMC assessed as inhibition of cell viability at 0.5 mg/ml after 72 hrs by MTT assay; format: cell-based; settings: PBMC (peripheral blood mononuclear cells), read-out: INH
[10] = system: L1210; assay: Antitumor activity against mouse L1210 cells assessed as inhibition of [3H]thymidine incorporation at 0.215 mg/ml after 72 hrs relative to control; format: functional
[11] = Cytotoxicity against human PBMC assessed as inhibition of cell viability at 0.21 mg/ml after 72 hrs by MTT assay; format: cell-based; settings: PBMC (peripheral blood mononuclear cells), read-out: INH
[12] = system: L1210; assay: Cytotoxicity against mouse L1210 cells assessed as inhibition of cell viability at 0.5 mg/ml after 72 hrs by MTT assay; format: functional; settings: L1210, 72 h

EC50 [4] [µM] | Structure (SMILES) | Ratio IC50/EC50 [1] | cytotoxicity at 72 h, 0.25 mg/ml [2] [%] | IC50 [3] [µM] | inhibition at 250 µg/mL [5] [%] | IC50 [6] [µM] | viability, % of control [7] [%] | growth, % of control at 500 µg/mL [8] [%] | cytotoxicity at 72 h, 0.5 mg/ml [9] [%] | inhibition at 215 µg/mL [10] [%] | cytotoxicity at 72 h, 0.21 mg/ml [11] [%] | inhibition at 500 µg/mL [12] [%]
228 | CC(=O)N[C@H]1[C@@H](OCc2ccccc2)O[C@H](CO)[C@@H](O)[C@@H]1O[C@H](C)C(=O)N[C@@H](C(=O)N[C@H](CCC(=O)O)C(N)=O)C(C)C | 47.9 | < 50 | 244 | 0.83 | 266 | 39.72 | – | – | – | – | –
363 | CC(=O)N[C@H]1[C@@H](OCc2ccccc2)O[C@H](CO)[C@@H](O)[C@@H]1OCC(=O)N[C@H](C)C(=O)N[C@H](CCC(=O)O)C(N)=O | 36.6 | – | 335 | – | 287 | 19.97 | 0.55 | – | – | – | –
290 | CC(=O)N[C@H]1[C@@H](OCc2ccccc2)O[C@H](CO)[C@@H](O)[C@@H]1OCC(=O)N[C@H](CO)C(=O)N[C@H](CCC(=O)O)C(N)=O | 19.3 | – | 858 | – | 314 | 14.68 | 0.76 | < 50 | – | – | –
193 | CC(=O)N[C@H]1[C@@H](OCc2ccccc2)O[C@H](CO)[C@@H](O)[C@@H]1OCC(=O)N[C@@H](C(=O)N[C@H](CCC(=O)O)C(N)=O)C(C)C | 23.7 | – | 361 | – | 170 | 26.6 | – | < 50 | 1.12 | < 50 | –
517 | CC(=O)N[C@H]1[C@@H](OCc2ccccc2)O[C@H](CO)[C@@H](O)[C@@H]1O[C@H](C)C(=O)N[C@H](C)C(=O)N[C@H](CCC(=O)NCCNc1ncnc2c1ncn2[C@@H]1O[C@H](CO)[C@@H](O)[C@H]1O)C(N)=O | 3.7 | – | 389 | – | 287 | 35.91 | 9.75 | – | – | – | –
446 | CC[C@@H](NC(=O)[C@@H](C)O[C@H]1[C@H](O)[C@@H](CO)O[C@H](OCc2ccccc2)[C@@H]1NC(C)=O)C(=O)N[C@H](CCC(=O)NCCNc1ncnc2c1ncn2[C@@H]1O[C@H](CO)[C@@H](O)[C@H]1O)C(N)=O | 33.8 | – | 439 | – | 220 | 29.01 | 0.86 | – | – | – | –
507 | CC(=O)N[C@H]1[C@@H](OCc2ccccc2)O[C@H](CO)[C@@H](O)[C@@H]1O[C@H](C)C(=O)N1CCC[C@@H]1C(=O)N[C@H](CCC(=O)NCCNc1ncnc2c1ncn2[C@@H]1O[C@H](CO)[C@@H](O)[C@H]1O)C(N)=O | 9.3 | – | 271 | – | 311 | 43.1 | 4.65 | – | – | – | –
497 | CC(=O)N[C@H]1[C@@H](OCc2ccccc2)O[C@H](CO)[C@@H](O)[C@@H]1O[C@H](C)C(=O)N[C@H](CO)C(=O)N[C@H](CCC(=O)NCCNc1ncnc2c1ncn2[C@@H]1O[C@H](CO)[C@@H](O)[C@H]1O)C(N)=O | 5.5 | – | 324 | – | 218 | 28.09 | 5.14 | – | – | – | –
458 | CC(=O)N[C@H]1[C@@H](OCc2ccccc2)O[C@H](CO)[C@@H](O)[C@@H]1O[C@H](C)C(=O)N[C@@H](C(=O)N[C@H](CCC(=O)NCCNc1ncnc2c1ncn2[C@@H]1O[C@H](CO)[C@@H](O)[C@H]1O)C(N)=O)C(C)C | -0.3 | – | 234 | – | 161 | -0.87 | 2.9 | – | – | – | –
500 | CC(=O)N[C@H]1[C@@H](OCc2ccccc2)O[C@H](CO)[C@@H](O)[C@@H]1OCC(=O)N[C@H](C)C(=O)N[C@H](CCC(=O)NCCNc1ncnc2c1ncn2[C@@H]1O[C@H](CO)[C@@H](O)[C@H]1O)C(N)=O | 44.7 | – | 298 | – | 270 | 29.84 | 0.67 | – | – | – | –
506 | CC[C@@H](NC(=O)CO[C@H]1[C@H](O)[C@@H](CO)O[C@H](OCc2ccccc2)[C@@H]1NC(C)=O)C(=O)N[C@H](CCC(=O)NCCNc1ncnc2c1ncn2[C@@H]1O[C@H](CO)[C@@H](O)[C@H]1O)C(N)=O | 19.6 | – | 466 | – | 571 | 53.6 | 2.73 | – | – | – | < 50
511 | CC(=O)N[C@H]1[C@@H](OCc2ccccc2)O[C@H](CO)[C@@H](O)[C@@H]1OCC(=O)N1CCC[C@@H]1C(=O)N[C@H](CCC(=O)NCCNc1ncnc2c1ncn2[C@@H]1O[C@H](CO)[C@@H](O)[C@H]1O)C(N)=O | 8.7 | – | 280 | – | 562 | 52.99 | 6.1 | – | – | – | < 50
541 | CC(=O)N[C@H]1[C@@H](OCc2ccccc2)O[C@H](CO)[C@@H](O)[C@@H]1OCC(=O)N[C@H](CO)C(=O)N[C@H](CCC(=O)NCCNc1ncnc2c1ncn2[C@@H]1O[C@H](CO)[C@@H](O)[C@H]1O)C(N)=O | 2.1 | – | 479 | – | 570 | 64.95 | 31.6 | – | – | – | –
512 | CC(=O)N[C@H]1[C@@H](OCc2ccccc2)O[C@H](CO)[C@@H](O)[C@@H]1OCC(=O)N[C@@H](C(=O)N[C@H](CCC(=O)NCCNc1ncnc2c1ncn2[C@@H]1O[C@H](CO)[C@@H](O)[C@H]1O)C(N)=O)C(C)C | 2.6 | – | 561 | – | 285 | 31.65 | 12.3 | < 50 | – | – | –
292 | CC(=O)N[C@H]1[C@@H](OCc2ccccc2)O[C@H](CO)[C@@H](O)[C@@H]1O[C@H](C)C(=O)N[C@H](C(=O)N[C@H](CCC(=O)NCCNc1ncnc2c1ncn2[C@@H]1O[C@H](CO)[C@@H](O)[C@H]1O)C(N)=O)C(C)C | 1.9 | – | 555 | – | 555 | 59.37 | 31.1 | < 50 | – | – | < 50
537 | CC(=O)N[C@H]1[C@@H](OCc2ccccc2)O[C@H](CO)[C@@H](O)[C@@H]1OCC(=O)N[C@@H](C)C(=O)N[C@H](CCC(=O)NCCCCCC(=O)Nc1ncnc2c1ncn2[C@@H]1O[C@H](CO)[C@@H](O)[C@H]1O)C(N)=O | 0.4 | – | 537 | – | 537 | 70.64 | 178 | < 50 | – | – | –
529 | CC(=O)N[C@H]1[C@@H](OCc2ccccc2)O[C@H](CO)[C@@H](O)[C@@H]1O[C@H](C)C(=O)N[C@@H](C)C(=O)N[C@H](CCC(=O)NCCCCCC(=O)Nc1ncnc2c1ncn2[C@@H]1O[C@H](CO)[C@@H](O)[C@H]1O)C(N)=O | 0.3 | – | 529 | – | 529 | 65.58 | 192 | < 50 | – | – | –
1010 | CC(=O)N[C@@H]1[C@@H](O[C@H](C)C(=O)N[C@H](C)C(=O)N[C@H](CCC(=O)O)C(N)=O)[C@H](O)[C@@H](CO)O[C@@H]1O | 0.4 | – | 1010 | – | 1010 | 64.93 | 146 | < 50 | – | – | –
1870 | Nc1ncnc2c1ncn2[C@@H]1O[C@H](CO)[C@@H](O)[C@H]1O [ADENOSINE] | 0.2 | – | 1870 | – | 991 | 32.79 | 132 | < 50 | – | – | –
